Measurements taken from publication PMC5382548 (Scientific Reports, 2015).
Entries after “also recorded” stand apart in the source; their conditions may differ.

How the values were obtained:
[1] = system: human KRAS promoter (pGL-Ras0.5, pGL-Ras2.0); assay: KRAS promoter luciferase reporter assay in HEK293T cells; type: cell-based; details: equitoxic (IC50) concentrations, 72 h, vs DMSO
From the text: A first evaluation of the compounds' ability to down-regulate KRAS gene transcription by directly acting on the KRAS promoter was undertaken with a luciferase reporter assay. For this purpose two different size wild-type promoter constructs were used, containing the G4 sequence and cloned into the Firefly luciferase pGL3 Basic backbone (pGL-Ras0.5, PGL-Ras2.0). These and pGL3 Basic empty (Firefly Luciferase negative control/no promoter) were co-transfected into HEK293T cells together with Renilla luciferase pRL-TK (transfection efficiency normalization) as a G4 negative control. […] In general, the data in Figure 5 clearly portraits a reduction of luciferase activity by ~25–50% when compared to Renilla basal levels induced by all G4 ligands.
Figure 5 KRAS promoter activity is decreased following exposure of HEK293T cells lines to equitoxic (IC50) concentrations of compounds TMPyP4, 2d, 3d and 3e. Cells were co-transfected with pGL3-basic vector (empty vector control), or with KRAS promoter luciferase reporter construct PGL-Ras0.5, or PGL-Ras2.0, together with pRL-TK. Twenty-four h later, cells were replated in 96 wells plates, at 5000 cells per well. […] KRAS promoter activity levels were evaluated by Dual-Luciferase assay 72 h after compound exposure. Results are expressed as the luciferase signal ratio of pGL-Ras2.0 or pGL-Ras0.5 to pGL3-basic vector transfected cells, after normalization with Renilla Luciferase. The results are expressed as the mean ± SEM fold-change compared to DMSO exposure, from three independent experiments. *p < 0.05 and § p < 0.01 from DMSO vehicle control.
HEK293T cells were seeded in 35 mm plates at 150000 cells per well. 24 h later, cells were transiently co-transfected with pGL3-basic vector (empty vector control), or with KRAS promoter luciferase reporter construct pGL-Ras0.5, or pGL-Ras2.0, together with pRL-TK (Promega, Madison, WI, USA). KRAS promotor luciferase reporters respectively harbour 500 bp and 2000 bp of the human KRAS promotor region, and were previously described elsewhere. pGL3 Basic empty was used as negative control, and pRL-TK simultaneously for transfection efficiency normalization and as a G4 negative control. […] Transfections were performed using Lipofectamine 2000 (Invitrogen), according to the manufacturer's instructions. […] Finally, 72 h after compound incubation, cells were lysed and firefly and Renilla luciferase activities were measured using the Dual-Luciferase®Reporter Assay System (Promega). KRAS promoter activity levels were expressed as the luciferase signal ratio of pGL-Ras2.0 or pGL-Ras0.5 to pGL3-basic vector transfected cells, after normalization with Renilla Luciferase. The results are expressed as the mean ± SEM fold-change compared to DMSO exposure, from three independent experiments.

[2] = system: F21T (DNA, G4) GGGTTAGGGTAGGGTTAGGG; assay: FRET melting; details: 60 mM K+; K-cacodylate pH 7.4; 0.2 μM DNA, 1 μM compound; SD ≤ 0.2
[3] = system: KRAS mRNA in HCT116 cells; assay: KRAS mRNA steady-state levels, Taqman real-time RT-PCR, HCT116; type: cell-based, human; details: 72 h; for Reduction of KRAS mRNA steady-state levels, HCT116: equitoxic (IC50) concentrations (TMPyP4 12 μM)
Method: The effects of compounds on KRAS transcription in colon cancer cells (HCT116 and SW620) were evaluated by quantifying KRAS mRNA steady-state levels using Taqman real-time RT-PCR.
(a) KRAS mRNA steady-state expression was evaluated by Taqman Real-time RT-PCR using specific Taqman Assays for KRAS and β-Actin for normalization. KRAS mRNA steady-state expression levels were calculated by the ΔΔCt method, using DMSO (vehicle control) for calibration; and (b) KRAS protein steady-state expression evaluated by immunoblot relative to control (DMSO vehicle) Results are expressed as mean ± SEM of at least three independent experiments; *p < 0.05 and §p < 0.01 from DMSO (vehicle control).
HCT116, SW620 and HEK293 T cells were seeded in 35 mm plates at 150000 cells per well. […] After 72 h of compound exposure, cells were collected and processed for total RNA extraction using TRIZOL reagent (Invitrogen) according to the manufacturer's instructions. Samples were homogenized in TRIZOL reagent using a motor-driven Bio-vortexer (No1083; Biospec Products, Bartlesfield, OK) and disposable RNAse/DNAse free sterile pestles (Thermo Fisher Scientific, Inc., Chicago, IL). […] Evaluation of steady-state expression of KRAS mRNA was performed by Taqman Real-time PCR assay, detailed in Supplementary Information.
Total RNA extraction and Taqman real-time RT-PCR
Taqman Real-time PCR reactions were performed using 1.5 µg of total RNA, using High Capacity RNA to cDNA kit, according to the manufacturer`s instruction. Next, Real-time PCR reactions were performed using Taqman Universal Master Mix II, no UNG, and primers specific to human KRAS (assay ID Hs00000174_rf, # 4465807) primers and to Human β- Actin (ACTB # 401846) for normalization to endogenous control (both from Applied Biosystems Inc). Triplicate reactions were run per sample. Data was collected with 7300 System Sequence Detection Software, version 1.2.3 (Applied Biosystems Inc). The comparative threshold cycle method was used to calculate the amplification factor, where the threshold cycle (Ct) is defined as the cycle number at which the fluorescence passes the fixed threshold intensity level. KRAS expression levels in different samples were calculated on the basis of ΔΔCt method. For each cell line, vehicle control (DMSO) was used as the calibrator. The n-fold change in KRAS expression was obtained using the formula: 2-ΔΔCt. […]
SW620 and HEK293 T cells were seeded in 24-well plates 50,000cells/well. Twenty-four hours later, cells were exposed to compounds for 72 h. After treatment, cell culture supernatants were collected and adherent cells were detached with TrypLE (Invitrogen).
Next, detached cells were pooled with cell culture supernatants and centrifuged for 5 min (650 g). […]

Structure (SMILES)	Reduction of KRAS promoter (luciferase) activity [1]	ΔTm [2] [°C]	KRAS mRNA levels reduced to (% remaining) ([3]; IC50 concentration, cell line not given)	Reduction of KRAS mRNA steady-state levels, HCT116 [3]
CCN(CC)CCCNc1ccc2c(c1)[nH]c1c2c[n+](C)c2ccc(NCCCN(CC)CC)cc12.[Cl-] [3e]	up to 50%	30.7		
CCN(CC)CCCNc1ccc2c(c1)c1[nH]c3ccccc3c1c[n+]2C [2d]	up to 50%	17.7	~ 10%	90%
C[n+]1ccc(-c2c3nc(c(-c4cc[n+](C)cc4)c4ccc([nH]4)c(-c4cc[n+](C)cc4)c4ccc([nH]4)c(-c4cc[n+](C)cc4)c4nc2C=C4)C=C3)cc1 [TMPyP4, reference compound]	25%			no ability to repress KRAS transcription; also recorded: did not inhibit KRAS transcription
Cn1cc2c3ccccc3nc-2c2cc(Br)ccc21 [2a, 2-bromo-5-methyl-indolo[3,2-c]quinoline]		5.6		
CCN(CC)CCCNc1ccc2[nH]c3c(c[n+](C)c4ccc(NCCCN(CC)CC)cc34)c2c1.[Cl-] [3d]	up to 50%			25%
